Where a SMILES comes first, the peptide text is derived from it. The star is where a group is joined. Cbz = O=C(OCc1ccccc1)*
How the values were obtained:
Type in all cases: cell-based, human
[1] = tested on: DLD-1 PI3K Mut cells vs PI3K WT cells; assay: Competition assay, PI3K Mut vs PI3K WT cells; settings: DLD-1 isogenic for the PI3K oncogene
DLD-1 Ras Mut cells = assay: CellTiter GLO cell viability assay; settings: DLD-1 Ras Mut vs WT measured independently
Protocol: The DLD-1 and HCT116 isogenic cells were kind gifts from Dr. Bert Vogelstein (Johns Hopkins University School of Medicine) and were maintained in McCoy's 5A media supplemented with 10% FBS and antibiotics. For proliferation assays, 10,000 cells were seeded in each well of a 24-well plate and cell number was measured using CellTiterGLO (Promega). For adherent colony assays, 1000 cells were seeded in each well of a 6-well plate and colonies were counted 10 days later by Coomassie staining. For anchorage independent colony assays, 1000 cells were seeded in each well of a 6-well plate in media containing 0.35% low-melting point agarose and colonies were counted 3 weeks later by crystal violet staining. The PCR primers used to amplify HH barcodes from genomic DNA samples are JH353F 5′-[…]-3′ and HHR2L 5′-[…]-3′. […] Paclitaxel, nocodazole, MG132 and monastrol were from Sigma-Aldrich. RO-3306 was from EMD Calbiochem. Bortezomib was from LC Laboratories. Rabbit antibody against phospho-PLK1 T210 was from Abcam. Rabbit phosphoH3-S10 antibody was from Covance. Mouse antibodies against PLK1, K-Ras and tubulin were from Santa Cruz Biotechnologies. Rabbit anti-COPS4 antibody was from Bethyl Laboratories.

[2] = tested on: DLD-1 Ras Mut cells vs DLD-1 Ras WT cells; assay: Competition assay, GFP-labeled Ras Mut vs Ras WT cells, FACS; settings: for Viability/fitness of Ras Mut cells after transient treatment: DLD-1, 24 hours treatment, drug washed out, 3 additional days before FACS; for Fitness of Ras Mut cells relative to Ras WT cells (synthetic lethality with mutant Ras): DLD-1 isogenic pair, drug present for 4-5 days
Protocol: E. Schematic of the competition assay used to validate shRNAs from the primary screen. Ras Mut cells expressing GFP and Ras WT cells were mixed and co-infected with the same retroviral shRNA. The Mut to WT cell ratio at the end of the experiment is measured by FACS. The percentage of Ras Mut cells in the mixture infected with a candidate RSL shRNA was normalized against that of a control shRNA targeting firefly luciferase (FF) within the same experiment to generate a normalized fitness score for the Ras Mut cells. Variations of this assay are also used to test the effect of siRNAs and chemical inhibitors.
Next, a competition assay was devised to test the reproducibility of candidate RSL shRNAs from the primary screen (Torrance et al., 2001; Smogorzewska et al., 2007). Individual shRNAs were packaged into retroviruses and infected into a 50:50 mixture of GFP+ DLD-1 Ras Mut cells and GFP (colorless) DLD-1 Ras WT cells. The relative ratio of Ras Mut versus WT cells at ˜7 days post shRNA infection was analyzed by FACS and compared to that of a mixed population infected with a negative control shRNA targeting luciferase (FIG. 8E). […] To rule out cell-line specific effect of candidate RSL shRNAs, candidates were tested using the competition assay in a second isogenic pair of colorectal cancer cell lines: HCT116 KRAS WT/G13D and HCT116 KRAS WT/−, which were derived with a similar method as the DLD-1 isogenic pair (Shirasawa et al., 1993; Torrance et al., 2001).
The competition assay used to test candidate genes from the screen was modified from a previous protocol (Torrance et al., 2001; Smogorzewska et al., 2007) and was carried out in 96-well plates in independent triplicates. For this assay, 1,000 each of GFP-labeled Ras Mut and unlabeled Ras WT cells were seeded in each well. For retroviral shRNA infection, cells were infected at an MOI of 1-5, selected for 3 days with puromycin and propagated for an additional 4-5 days before analyzed by FACS. An shRNA targeting firefly luciferase (shRNA-FF) was used as the negative control. For siRNA transfection, cells were transfected with siGenome siRNAs (Dharmacon) using Lipofectamine RNAiMAX (InVitrogen) and analyzed by FACS 5-6 days post transfection An siRNA targeting luciferase (Luc) was used as the negative control. […] Untreated wells were used as negative controls. To obtain normalized fitness of Ras Mut cells that can be compared across experiments, the percentage of Ras Mut cells in each sample was normalized to that in the control samples of that experiment.

[3] = tested on: HCT116 PI3K Mut cells vs PI3K WT cells; assay: Competition assay, PI3K Mut vs PI3K WT cells; settings: HCT116 isogenic for the PI3K oncogene
[4] = tested on: DLD-1 Ras Mut and Ras WT cells; assay: Cell cycle and mitotic stage analysis (FACS, phospho-H3 Ser10, microscopy); settings: for Completion of mitosis (mitotic exit) after nocodazole release: BI-2536 for 2 hours; for Prometaphase arrest of mitotic cells: DLD-1 Ras Mut vs Ras WT; for G2/M arrest, Ras Mut vs Ras WT cells: synthetic lethal concentration of drug
Protocol: (§1) For cell cycle analysis, cells were ethanol fixed and stained with PI and analyzed using a BD LSR II FACS analyzer (BD Bioscience). Data analysis was carried out with BD FACS Diva and FlowJo softwares. Cell cycle synchronization by double thymidine block was based on a previous protocol (Steegmaier et al., 2007). Briefly, cells were arrested with two rounds of 20-hour thymidine (2.5 mM) treatment approximately 12 hours apart and released into mitosis. […] For one-step arrest in G2/M or in prometaphase, cells were treated overnight with either RO-3306 (10 μM) or the Eg5 kinesin inhibitor monastrol (100 μM), respectively. For mitotic entry experiments, cells were synchronized in RO-3306 (10 uM) overnight prior to release. For mitotic release experiments, cells were released from overnight synchronization in RO-3306 (10 uM) into nocodazole ([…]) for 4 hours and mitotic cells were collected by mitotic shake-off. Cells were then release by washing out the nocodazole. For the analysis of lagging chromosomes and mitotic index by microscopy, cells seeded onto coverslips were arrested in mitosis with 100 μM monastrol for 16 hours. Cells were washed and released into fresh media and were fixed at ten minute intervals for two hours in PHEM buffer+2% formaldehyde+0.5% triton-X100. Cells were immunostained with DAPI to visualized DNA and antibodies to phospho-histone H3 Ser10 (pH3S10) and to α-tubulin to identify mitotic cells at different stages. Independent triplicates with >100 cells per replicate were analyzed. For measuring mitotic index by FACS, cells were trypsinized, fixed with ethanol and stained with PI and pH3S10 antibody.

[5] = tested on: HCT116 Ras Mut and Ras WT cells
Protocol: as §1, with “Cells were immunostained with DAPI to visualized DNA and antibodies to phospho-histone H3 Ser10 (pH3S10) and to α-tubulin to identify mitotic cells at different stages.” left out, “For measuring mitotic index by FACS, cells were trypsinized, fixed with ethanol and stained with PI and pH3S10 antibody.” left out

[6] = tested on: HCT116 Ras Mut cells vs HCT116 Ras WT cells; assay: Competition assay, GFP-labeled Ras Mut vs Ras WT cells, FACS; settings: HCT116 isogenic pair; drug present for 4-5 days
Protocol: Next, a competition assay was devised to test the reproducibility of candidate RSL shRNAs from the primary screen (Torrance et al., 2001; Smogorzewska et al., 2007). Individual shRNAs were packaged into retroviruses and infected into a 50:50 mixture of GFP+ DLD-1 Ras Mut cells and GFP (colorless) DLD-1 Ras WT cells. The relative ratio of Ras Mut versus WT cells at ˜7 days post shRNA infection was analyzed by FACS and compared to that of a mixed population infected with a negative control shRNA targeting luciferase (FIG. 8E). […] Without wishing to be bound by theory, a possible cause for the higher false positive rate in the primary screen might due to the fact that for the synthetic lethal analysis the difference between two microarray datasets is extracted and coupled with the fact that the secondary assay is much shorter than the original discovery assay. To rule out cell-line specific effect of candidate RSL shRNAs, candidates were tested using the competition assay in a second isogenic pair of colorectal cancer cell lines: HCT116 KRAS WT/G13D and HCT116 KRAS WT/−, which were derived with a similar method as the DLD-1 isogenic pair (Shirasawa et al., 1993; Torrance et al., 2001).
The competition assay used to test candidate genes from the screen was modified from a previous protocol (Torrance et al., 2001; Smogorzewska et al., 2007) and was carried out in 96-well plates in independent triplicates. For this assay, 1,000 each of GFP-labeled Ras Mut and unlabeled Ras WT cells were seeded in each well. For retroviral shRNA infection, cells were infected at an MOI of 1-5, selected for 3 days with puromycin and propagated for an additional 4-5 days before analyzed by FACS. An shRNA targeting firefly luciferase (shRNA-FF) was used as the negative control. For siRNA transfection, cells were transfected with siGenome siRNAs (Dharmacon) using Lipofectamine RNAiMAX (InVitrogen) and analyzed by FACS 5-6 days post transfection An siRNA targeting luciferase (Luc) was used as the negative control. For drug treatment, cells were treated with drugs for 4-5 days prior to FACS analysis. Untreated wells were used as negative controls. To obtain normalized fitness of Ras Mut cells that can be compared across experiments, the percentage of Ras Mut cells in each sample was normalized to that in the control samples of that experiment.

Row | SMILES | Fitness of PI3K Mut cells vs PI3K WT cells [1] | Toxicity by CellTiter GLO cell viability (DLD-1 Ras Mut cells) | Viability/fitness of Ras Mut cells after transient treatment [2] | Concentration at which the synthetic lethal effect is strongest ([2]; DLD-1 cells) | Fitness of PI3K Mut cells vs PI3K WT cells [3] | G2/M accumulation, cell cycle distribution ([4]; DLD-1, 25 nM or 50 nM BI-2536 for one day) | Sub-G1 population (cell death) ([4]; DLD-1, prolonged treatment with BI-2536 (25 nM) for 2 days) | Completion of mitosis (mitotic exit) after nocodazole release ([4]; DLD-1 Ras Mut cells) | Prometaphase arrest of mitotic cells [4] | Completion of mitosis (mitotic exit) after nocodazole release ([4]; DLD-1 Ras WT cells) | Mitotic entry after release from RO-3306 into nocodazole ([4]; DLD-1 Ras WT or Ras Mut, synthetic lethal concentration of BI-2536, 1 hour) | Cell cycle accumulation of Ras Mut cells by FACS [5] | Fitness of Ras Mut cells relative to Ras WT cells (synthetic lethality with mutant Ras) [2] | G2/M arrest, Ras Mut vs Ras WT cells ([4]; DLD-1) | Fitness of Ras Mut cells relative to Ras WT cells (synthetic lethality with mutant Ras) [6]
1 | CC[C@@H]1C(=O)N(C)c2cnc(Nc3ccc(C(=O)NC4CCN(C)CC4)cc3OC)nc2N1C1CCCC1 [BI-2536] | more resistant to these inhibitors relative to DLD-1 PI3K WT cells | enhanced toxicity in DLD-1 Ras Mut cells | sufficient to selectively impair the viability of Ras Mut cells | approximately 25 nM | very little difference | Ras Mut cells show a profound G2/M accumulation | elevated sub-G1 population in Ras Mut cells | profound delay in mitotic exit in Ras Mut cells | strong block of Ras Mut cells in prometaphase | minimal effect on Ras WT cells | unaffected |  |  |  | 
2 | CC(C)C[C@@H](C=O)NC(=O)[C@H](CC(C)C)NC(=O)[C@H](CC(C)C)NC(=O)OCc1ccccc1 [MG132] (Cbz-Leu-Leu-Leu-aldehyde) | more resistant to these inhibitors relative to DLD-1 PI3K WT cells |  | sufficient to selectively impair the viability of Ras Mut cells |  | very little difference |  |  |  | more profound prometaphase block of the Ras Mut cells |  |  | preferentially induce the accumulation of Ras Mut HCT116 cells | selectively decreased the fitness of DLD-1 Ras Mut cells in a dose dependent fashion | more sensitive | selectively decrease the fitness of HCT116 Ras Mut cells
3 | N#CC(=C(/N)Sc1ccccc1N)/C(C#N)=C(\N)Sc1ccccc1N [U0126] |  |  |  |  |  |  |  |  |  |  |  |  | At no concentration of these drugs was selective toxicity towards Ras Mut cells compared to Ras WT cells observed |  | 
4 | CC(C)C[C@H](NC(=O)[C@H](Cc1ccccc1)NC(=O)c1cnccn1)B(O)O [bortezomib] | more resistant to these inhibitors relative to DLD-1 PI3K WT cells |  | sufficient to selectively impair the viability of Ras Mut cells |  | very little difference |  |  |  | more profound prometaphase block of the Ras Mut cells |  |  | preferentially induce the accumulation of Ras Mut HCT116 cells | selectively decreased the fitness of DLD-1 Ras Mut cells in a dose dependent fashion | more sensitive | selectively decrease the fitness of HCT116 Ras Mut cells
5 | COC(=O)Nc1nc2ccc(C(=O)c3cccs3)cc2[nH]1 [nocodazole] |  |  |  |  |  |  |  |  |  |  |  |  | no synthetic lethality with mutant Ras |  | no synthetic lethality with mutant Ras
6 | CC(=O)O[C@H]1C(=O)[C@@]2(C)[C@H]([C@H](OC(=O)c3ccccc3)[C@]3(O)C[C@H](OC(=O)[C@H](O)[C@@H](NC(=O)c4ccccc4)c4ccccc4)C(C)=C1C3(C)C)[C@]1(OC(C)=O)CO[C@@H]1C[C@@H]2O [paclitaxel] | more resistant to these inhibitors relative to DLD-1 PI3K WT cells |  | sufficient to selectively impair the viability of Ras Mut cells |  | very little difference |  |  |  | striking pro-metaphase block in the Ras mutant cells |  |  |  | increased sensitivity | strong G2/M arrest in Ras Mut cells but not in Ras WT cells | increased sensitivity

— US20110081362A1, “TREATMENT OF CANCER” (THE BRIGHAM AND WOMEN'S HOSPITAL, INC., priority 2008, published 2011)
